Several values for one entry are separate records, joined by “and”; a condition that tells them apart may be missing. Equal entries are not always repeated. Where two headings read alike, the source gives them in different places.
Experiments:
[1] = molecular target: T1, EGFR L858R (LR) kinase domain (Homo sapiens, UniProt P00533, L858R); assay: HTRF KinEASE-TK kinase activity assay; assay type: biochemical
T1 construct: The EGFR kinase domain (residues 696–1022) was cloned into pTriEx; 6xHis (N, cleaved yes); GST (N, cleaved yes); made in house; host or cells: SF9 insect cells, baculovirus

[2] = molecular target: T2, DMPK (Homo sapiens, UniProt Q09013); assay: KINOMEscan; assay type: binding; settings: 1 μM
T2 construct: purchased Eurofins DiscoverX Corporation

[3] = molecular target: PRKG2 (Homo sapiens, UniProt Q13237); assay: KINOMEscan; assay type: binding; settings: 1 μM
[4] = molecular target: T3, MST3 (Homo sapiens, UniProt Q9Y6E0); assay: KINOMEscan; assay type: binding; settings: 1 μM
T3 construct: purchased Eurofins DiscoverX Corporation

[5] = molecular target: FGFR1 (Homo sapiens, UniProt P11362); assay: KINOMEscan; assay type: binding; settings: 1 μM
[6] = test system: FLT3(ITD+F691L); assay: KINOMEscan; assay type: binding; settings: 1 μM
[7] = molecular target: T4, IKK-alpha (Homo sapiens, UniProt O15111); assay: KINOMEscan; assay type: binding; settings: 1 μM
T4 construct: purchased Eurofins DiscoverX (KINOMEscan)

[8] = molecular target: EPHA8 (Homo sapiens, UniProt P29322); assay: KINOMEscan; assay type: binding; settings: 1 μM
[9] = molecular target: T5, MAP3K2 (Homo sapiens, UniProt Q9Y2U5); assay: KINOMEscan; assay type: binding; settings: 1 μM
T5 construct: purchased Eurofins DiscoverX Corporation

[10] = molecular target: T6, ABL1(Q252H)-nonphosphorylated (Homo sapiens, UniProt P00519, Q252H); assay: KINOMEscan; assay type: binding; settings: 1 μM
T6 construct: purchased Eurofins DiscoverX Corporation

[11] = molecular target: WNK3 (Homo sapiens, UniProt Q9BYP7); assay: KINOMEscan; assay type: binding; settings: 1 μM
[12] = molecular target: T7, IRAK4 (Homo sapiens, UniProt Q9NWZ3); assay: KINOMEscan; assay type: binding; settings: 1 μM
T7 construct: purchased Eurofins DiscoverX (KINOMEscan)

[13] = molecular target: PIK3CG (Homo sapiens, UniProt P48736); assay: KINOMEscan; assay type: binding; settings: 1 μM
[14] = molecular target: PRKX (Homo sapiens, UniProt P51817); assay: KINOMEscan; assay type: binding; settings: 1 μM
[15] = molecular target: T8, ABL1(Y253F)-phosphorylated (Homo sapiens, UniProt P00519, Y253F); assay: KINOMEscan; assay type: binding; settings: 1 μM
T8 construct: purchased Eurofins DiscoverX Corporation

[16] = molecular target: PKMYT1 (Homo sapiens, UniProt Q99640); assay: KINOMEscan; assay type: binding; settings: 1 μM
[17] = molecular target: AMPK-alpha2 (Homo sapiens, UniProt P54646); assay: KINOMEscan; assay type: binding; settings: 1 μM
[18] = molecular target: RIPK2 (Homo sapiens, UniProt O43353); assay: KINOMEscan; assay type: binding; settings: 1 μM
[19] = molecular target: T9, LOK (Homo sapiens, UniProt O94804); assay: KINOMEscan; assay type: binding; settings: 1 μM
T9 construct: purchased Eurofins DiscoverX Corporation

[20] = molecular target: YSK1 (Homo sapiens, UniProt O00506); assay: KINOMEscan; assay type: binding; settings: 1 μM
[21] = molecular target: FGFR3(G697C) (Homo sapiens, UniProt P22607, G697C); assay: KINOMEscan; assay type: binding; settings: 1 μM
[22] = molecular target: AKT1 (Homo sapiens, UniProt P31749); assay: KINOMEscan; assay type: binding; settings: 1 μM
[23] = molecular target: T10, SYK (Homo sapiens, UniProt P43405); assay: KINOMEscan; assay type: binding; settings: 1 μM
T10 construct: purchased Eurofins DiscoverX Corporation

[24] = molecular target: VEGFR2 (Homo sapiens, UniProt P35968); assay: KINOMEscan; assay type: binding; settings: 1 μM
[25] = test system: 468 kinases; assay: KINOMEscan selectivity score; assay type: binding; settings: 1 μM
[26] = molecular target: T11, KIT-autoinhibited (Homo sapiens, UniProt P10721); assay: KINOMEscan; assay type: binding; settings: 1 μM
T11 construct: purchased Eurofins DiscoverX Corporation

[27] = molecular target: CLK1 (Homo sapiens, UniProt P49759); assay: KINOMEscan; assay type: binding; settings: 1 μM
[28] = molecular target: EGFR (Homo sapiens, UniProt P00533); assay: KINOMEscan; assay type: binding; settings: 1 μM
[29] = molecular target: T12, MST1R (Homo sapiens, UniProt Q04912); assay: KINOMEscan; assay type: binding; settings: 1 μM
T12 construct: purchased Eurofins DiscoverX Corporation

[30] = molecular target: T13, MYO3A (Homo sapiens, UniProt Q8NEV4); assay: KINOMEscan; assay type: binding; settings: 1 μM
T13 construct: purchased Eurofins DiscoverX Corporation

[31] = molecular target: T14, IRAK1 (Homo sapiens, UniProt P51617); assay: KINOMEscan; assay type: binding; settings: 1 μM
T14 construct: purchased Eurofins DiscoverX (KINOMEscan)

[32] = test system: FLT3(ITD+D835V); assay: KINOMEscan; assay type: binding; settings: 1 μM
[33] = molecular target: T15, DLK (Homo sapiens, UniProt Q12852); assay: KINOMEscan; assay type: binding; settings: 1 μM
T15 construct: purchased Eurofins DiscoverX Corporation

[34] = molecular target: RIPK1 (Homo sapiens, UniProt Q13546); assay: KINOMEscan; assay type: binding; settings: 1 μM
[35] = molecular target: SGK3 (Homo sapiens, UniProt Q96BR1); assay: KINOMEscan; assay type: binding; settings: 1 μM
[36] = molecular target: ERN1 (Homo sapiens, UniProt O75460); assay: KINOMEscan; assay type: binding; settings: 1 μM
[37] = molecular target: T16, ABL1(F317I)-phosphorylated (Homo sapiens, UniProt P00519, F317I); assay: KINOMEscan; assay type: binding; settings: 1 μM
T16 construct: purchased Eurofins DiscoverX Corporation

[38] = molecular target: T17, LRRK2 (Homo sapiens, UniProt Q5S007); assay: KINOMEscan; assay type: binding; settings: 1 μM
T17 construct: purchased Eurofins DiscoverX Corporation

[39] = molecular target: T18, BMX (Homo sapiens, UniProt P51813); assay: KINOMEscan; assay type: binding; settings: 1 μM
T18 construct: purchased Eurofins DiscoverX Corporation (KINOMEscan)

[40] = molecular target: TTK (Homo sapiens, UniProt P33981); assay: KINOMEscan; assay type: binding; settings: 1 μM

T12 sequence (Q04912 25-1400): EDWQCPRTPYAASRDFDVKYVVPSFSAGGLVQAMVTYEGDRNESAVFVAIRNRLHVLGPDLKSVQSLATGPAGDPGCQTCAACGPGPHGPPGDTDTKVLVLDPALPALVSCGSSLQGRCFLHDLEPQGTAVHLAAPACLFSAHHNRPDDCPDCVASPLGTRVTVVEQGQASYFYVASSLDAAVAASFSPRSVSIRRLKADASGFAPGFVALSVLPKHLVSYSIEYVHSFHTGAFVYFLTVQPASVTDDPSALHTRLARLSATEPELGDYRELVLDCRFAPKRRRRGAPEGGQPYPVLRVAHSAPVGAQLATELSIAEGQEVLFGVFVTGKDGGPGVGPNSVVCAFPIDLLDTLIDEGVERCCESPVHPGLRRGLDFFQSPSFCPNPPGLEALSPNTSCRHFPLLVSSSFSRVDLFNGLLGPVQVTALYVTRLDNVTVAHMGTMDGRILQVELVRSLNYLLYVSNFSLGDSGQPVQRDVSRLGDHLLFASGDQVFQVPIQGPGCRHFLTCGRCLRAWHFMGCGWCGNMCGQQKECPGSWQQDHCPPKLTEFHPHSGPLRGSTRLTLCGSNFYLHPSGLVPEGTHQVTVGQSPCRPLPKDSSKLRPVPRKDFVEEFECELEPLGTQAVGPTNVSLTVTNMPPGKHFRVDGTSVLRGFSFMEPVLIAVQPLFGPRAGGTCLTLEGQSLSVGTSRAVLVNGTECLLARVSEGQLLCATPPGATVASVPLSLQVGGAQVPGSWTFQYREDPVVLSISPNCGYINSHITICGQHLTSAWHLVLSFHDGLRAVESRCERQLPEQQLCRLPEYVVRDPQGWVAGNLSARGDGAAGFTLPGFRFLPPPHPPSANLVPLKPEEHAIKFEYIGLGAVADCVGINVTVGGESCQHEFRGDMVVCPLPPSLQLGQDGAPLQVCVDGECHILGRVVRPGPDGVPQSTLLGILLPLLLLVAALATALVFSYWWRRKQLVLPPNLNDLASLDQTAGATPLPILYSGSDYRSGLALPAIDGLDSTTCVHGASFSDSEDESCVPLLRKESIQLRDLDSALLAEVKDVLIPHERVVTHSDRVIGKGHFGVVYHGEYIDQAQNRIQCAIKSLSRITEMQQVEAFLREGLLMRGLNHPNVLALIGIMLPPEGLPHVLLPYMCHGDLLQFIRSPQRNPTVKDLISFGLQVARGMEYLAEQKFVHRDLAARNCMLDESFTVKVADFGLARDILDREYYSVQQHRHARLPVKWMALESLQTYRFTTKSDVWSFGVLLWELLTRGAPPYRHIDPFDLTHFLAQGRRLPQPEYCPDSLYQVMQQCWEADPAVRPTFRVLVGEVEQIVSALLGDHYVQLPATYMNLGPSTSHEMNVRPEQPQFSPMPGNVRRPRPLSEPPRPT
Chain of FGFR1 (P11362 22-822): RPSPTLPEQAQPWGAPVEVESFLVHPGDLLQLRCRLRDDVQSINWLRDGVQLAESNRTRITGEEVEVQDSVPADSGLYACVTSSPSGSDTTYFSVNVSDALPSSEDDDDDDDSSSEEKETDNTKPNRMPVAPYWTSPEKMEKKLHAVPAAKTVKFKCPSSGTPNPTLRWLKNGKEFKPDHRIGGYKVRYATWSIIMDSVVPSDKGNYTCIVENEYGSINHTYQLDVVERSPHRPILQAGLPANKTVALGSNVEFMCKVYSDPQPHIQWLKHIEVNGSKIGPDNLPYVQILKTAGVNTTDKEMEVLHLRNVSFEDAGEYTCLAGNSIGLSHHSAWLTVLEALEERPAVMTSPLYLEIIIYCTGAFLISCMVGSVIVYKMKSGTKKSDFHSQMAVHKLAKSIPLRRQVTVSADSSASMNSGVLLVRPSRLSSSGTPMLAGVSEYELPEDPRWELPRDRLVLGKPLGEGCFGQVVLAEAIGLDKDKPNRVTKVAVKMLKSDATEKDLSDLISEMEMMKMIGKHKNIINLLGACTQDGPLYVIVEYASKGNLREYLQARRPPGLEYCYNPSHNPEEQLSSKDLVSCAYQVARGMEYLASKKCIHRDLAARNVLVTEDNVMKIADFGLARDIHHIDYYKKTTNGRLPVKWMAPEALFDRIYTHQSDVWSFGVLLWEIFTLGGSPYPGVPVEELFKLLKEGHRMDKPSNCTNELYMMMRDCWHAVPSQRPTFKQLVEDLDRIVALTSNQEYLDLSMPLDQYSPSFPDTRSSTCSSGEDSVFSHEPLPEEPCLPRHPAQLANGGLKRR
Chain of AMPK-alpha2 (P54646 whole entry): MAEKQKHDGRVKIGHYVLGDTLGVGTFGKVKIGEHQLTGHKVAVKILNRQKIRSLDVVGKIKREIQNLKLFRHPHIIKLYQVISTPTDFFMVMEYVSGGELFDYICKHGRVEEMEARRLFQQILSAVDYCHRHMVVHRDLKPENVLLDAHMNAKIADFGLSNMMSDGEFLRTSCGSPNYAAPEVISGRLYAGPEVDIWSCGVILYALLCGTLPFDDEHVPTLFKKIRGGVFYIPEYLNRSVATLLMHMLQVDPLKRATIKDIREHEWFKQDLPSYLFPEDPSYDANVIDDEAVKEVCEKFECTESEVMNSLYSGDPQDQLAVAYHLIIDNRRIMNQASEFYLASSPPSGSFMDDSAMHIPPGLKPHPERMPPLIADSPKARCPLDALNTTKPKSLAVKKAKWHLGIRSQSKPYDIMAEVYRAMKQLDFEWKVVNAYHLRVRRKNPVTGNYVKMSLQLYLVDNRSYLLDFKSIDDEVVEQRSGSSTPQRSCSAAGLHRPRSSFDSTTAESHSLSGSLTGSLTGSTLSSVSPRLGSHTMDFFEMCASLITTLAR
T13 sequence (Q8NEV4 whole entry): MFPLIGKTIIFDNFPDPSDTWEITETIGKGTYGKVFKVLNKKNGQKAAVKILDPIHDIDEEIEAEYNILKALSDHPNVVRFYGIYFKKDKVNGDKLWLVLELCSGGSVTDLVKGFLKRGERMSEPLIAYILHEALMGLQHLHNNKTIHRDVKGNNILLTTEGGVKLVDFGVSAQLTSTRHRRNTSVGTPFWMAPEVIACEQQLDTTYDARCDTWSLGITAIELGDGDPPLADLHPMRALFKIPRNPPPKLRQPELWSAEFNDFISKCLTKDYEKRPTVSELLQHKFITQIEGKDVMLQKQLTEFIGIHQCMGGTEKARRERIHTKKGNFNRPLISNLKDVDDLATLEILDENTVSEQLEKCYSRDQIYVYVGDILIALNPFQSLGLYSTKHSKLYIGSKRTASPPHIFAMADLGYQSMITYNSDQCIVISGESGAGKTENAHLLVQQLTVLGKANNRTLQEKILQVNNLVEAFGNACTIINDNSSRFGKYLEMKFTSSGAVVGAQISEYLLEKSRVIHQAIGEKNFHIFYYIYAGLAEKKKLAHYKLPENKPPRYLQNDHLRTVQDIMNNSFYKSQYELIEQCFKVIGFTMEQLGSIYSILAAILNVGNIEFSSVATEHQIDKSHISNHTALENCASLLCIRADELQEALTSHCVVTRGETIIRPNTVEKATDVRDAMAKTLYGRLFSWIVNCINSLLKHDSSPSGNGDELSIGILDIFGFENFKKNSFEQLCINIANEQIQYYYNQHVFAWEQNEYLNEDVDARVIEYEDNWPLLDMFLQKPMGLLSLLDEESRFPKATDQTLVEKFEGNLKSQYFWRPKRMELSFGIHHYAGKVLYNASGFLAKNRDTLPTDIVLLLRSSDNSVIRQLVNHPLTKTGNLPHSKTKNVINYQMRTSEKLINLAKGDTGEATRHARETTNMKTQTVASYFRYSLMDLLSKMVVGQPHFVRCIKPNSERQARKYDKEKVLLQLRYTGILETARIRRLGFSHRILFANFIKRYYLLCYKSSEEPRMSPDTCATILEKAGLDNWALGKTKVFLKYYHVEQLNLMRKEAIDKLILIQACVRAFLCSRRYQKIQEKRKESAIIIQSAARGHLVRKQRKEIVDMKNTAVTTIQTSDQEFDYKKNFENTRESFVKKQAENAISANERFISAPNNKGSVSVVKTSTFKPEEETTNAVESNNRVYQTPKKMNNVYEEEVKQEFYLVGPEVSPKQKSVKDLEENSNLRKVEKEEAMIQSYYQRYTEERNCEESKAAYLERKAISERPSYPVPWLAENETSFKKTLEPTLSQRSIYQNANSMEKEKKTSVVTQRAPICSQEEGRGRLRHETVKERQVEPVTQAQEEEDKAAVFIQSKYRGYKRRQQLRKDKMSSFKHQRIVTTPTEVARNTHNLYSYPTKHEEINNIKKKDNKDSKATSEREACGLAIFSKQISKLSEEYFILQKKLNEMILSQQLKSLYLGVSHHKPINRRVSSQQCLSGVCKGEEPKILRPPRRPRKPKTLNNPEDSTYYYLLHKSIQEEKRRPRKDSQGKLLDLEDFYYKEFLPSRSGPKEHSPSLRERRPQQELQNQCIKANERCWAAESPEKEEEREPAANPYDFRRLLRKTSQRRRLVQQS
T7 sequence (Q9NWZ3 whole entry): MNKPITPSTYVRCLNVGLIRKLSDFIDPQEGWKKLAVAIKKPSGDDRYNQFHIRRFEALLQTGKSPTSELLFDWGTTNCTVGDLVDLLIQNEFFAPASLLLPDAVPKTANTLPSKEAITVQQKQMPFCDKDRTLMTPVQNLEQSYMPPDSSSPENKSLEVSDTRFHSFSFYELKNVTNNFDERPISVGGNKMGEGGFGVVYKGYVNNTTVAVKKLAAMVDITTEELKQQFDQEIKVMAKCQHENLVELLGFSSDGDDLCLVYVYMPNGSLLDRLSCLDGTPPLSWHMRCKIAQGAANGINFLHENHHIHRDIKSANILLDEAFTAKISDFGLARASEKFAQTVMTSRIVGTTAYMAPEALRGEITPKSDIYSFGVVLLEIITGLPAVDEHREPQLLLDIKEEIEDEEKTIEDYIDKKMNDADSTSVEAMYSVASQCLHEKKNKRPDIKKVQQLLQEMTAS

Question: With `CSc1nc(-c2cccc(NC(=O)c3cccc4c3NC(=O)c3ccccc3N4)c2)c(-c2ccnc(NC(C)=O)c2)[nH]1` [Compound 2] as the compound, how does the activity ([1]; LR, [Inhibitor] 1.3e-5 nM, read-out: percent inhibition) read?
Answer: The activity was 93.5% and 92.2% and 100%.

Question: And the activity ([1]; LR, [Inhibitor] 3.18e-5 nM, read-out: percent inhibition)?
Answer: The activity was 90.3% (2×) and 95.9%.

Question: And the activity ([1]; LR, [Inhibitor] 7.78e-5 nM, read-out: percent inhibition)?
Answer: Its activity is 71% and 67.2% and 70.8%.

Question: What about the activity at 190.4 fM ([1]; LR, [Inhibitor] 0.000190441 nM, read-out: percent inhibition) of the same compound?
Answer: Its activity at 190.4 fM is 39.1%.

Question: What about the activity at 466 fM ([1]; LR, [Inhibitor] 0.000465979 nM, read-out: percent inhibition) of the same compound?
Answer: The activity at 466 fM was 22.7%.

Question: What about the activity at 1.14 pM ([1]; LR, [Inhibitor] 0.00114018 nM, read-out: percent inhibition) of the same compound?
Answer: The activity at 1.14 pM was 13.5%.

Question: What about the activity at 2.79 pM ([1]; LR, [Inhibitor] 0.00278983 nM, read-out: percent inhibition) of the same compound?
Answer: Its activity at 2.79 pM is 8.55%.

Question: What about the activity at 6.826 pM ([1]; LR, [Inhibitor] 0.00682626 nM, read-out: percent inhibition) of the same compound?
Answer: Its activity at 6.826 pM is 4.28%.

Question: What about the activity at 16.7 pM ([1]; LR, [Inhibitor] 0.0167028 nM, read-out: percent inhibition) of the same compound?
Answer: Its activity at 16.7 pM is 1.88%.

Question: What about the IC50 ([1]; enzyme 0.1 nM, ATP 100 µM, read-out: Biochemical EGFR IC50, LR) of the same compound?
Answer: The IC50 was 1.5 ± 0.1 nM.

Question: For `C=CC(=O)Nc1ccc(OC)c(Nc2cc(-c3[nH]c(CC)nc3-c3cccc(NC(=O)c4cccc5c4NC(=O)c4ccccc4N5)c3)ccn2)c1` [Compound 4], which POC [2] is on record?
Answer: The POC was 45% of control.

Question: And the POC [3]?
Answer: Its POC is 62% of control.

Question: What about the POC [4] of the same compound?
Answer: The POC was 73% of control.

Question: And the POC [5]?
Answer: Its POC is 86% of control.

Question: And the POC [6]?
Answer: Its POC is 79% of control.

Question: And the POC [7]?
Answer: The POC was 100% of control.

Question: And the POC [8]?
Answer: The POC was 98% of control.

Question: And the POC [9]?
Answer: Its POC is 100% of control.

Question: What about the POC [10] of the same compound?
Answer: Its POC is 100% of control.

Question: What about the POC [11] of the same compound?
Answer: The POC was 78% of control.

Question: And the POC [12]?
Answer: Its POC is 43% of control.

Question: What about the POC [13] of the same compound?
Answer: The POC was 65% of control.

Question: And the POC [14]?
Answer: The POC was 100% of control.

Question: What about the POC [15] of the same compound?
Answer: Its POC is 72% of control.

Question: What about the POC [16] of the same compound?
Answer: The POC was 99% of control.

Question: And the POC [17]?
Answer: The POC was 56% of control.

Question: And the POC [18]?
Answer: Its POC is 62% of control.

Question: What about the POC [19] of the same compound?
Answer: The POC was 49% of control.

Question: What about the POC [20] of the same compound?
Answer: The POC was 76% of control.

Question: What about the POC [21] of the same compound?
Answer: The POC was 100% of control.

Question: And the POC [22]?
Answer: Its POC is 89% of control.

Question: What about the POC [23] of the same compound?
Answer: Its POC is 63% of control.

Question: And the POC [24]?
Answer: The POC was 100% of control.

Question: What about the “selectivity score S(35)” value [25] of the same compound?
Answer: Its value is 0.084.

Question: What about the POC [26] of the same compound?
Answer: Its POC is 100% of control.

Question: And the POC [27]?
Answer: Its POC is 100% of control.

Question: And the POC [28]?
Answer: Its POC is 17% of control.

Question: And the POC [29]?
Answer: Its POC is 85% of control.

Question: And the POC [30]?
Answer: Its POC is 14% of control.

Question: What about the POC [31] of the same compound?
Answer: Its POC is 85% of control.

Question: What about the POC [32] of the same compound?
Answer: Its POC is 100% of control.

Question: What about the POC [33] of the same compound?
Answer: Its POC is 100% of control.

Question: What about the POC [34] of the same compound?
Answer: Its POC is 100% of control.

Question: And the POC [35]?
Answer: Its POC is 90% of control.

Question: And the POC [36]?
Answer: The POC was 74% of control.

Question: And the POC [37]?
Answer: Its POC is 84% of control.

Question: What about the POC [38] of the same compound?
Answer: Its POC is 93% of control.

Question: And the POC [39]?
Answer: The POC was 66% of control.

Question: What about the POC [40] of the same compound?
Answer: The POC was 72% of control.

From article PMC10879502, “Linking ATP and allosteric sites to achieve superadditive binding with bivalent EGFR kinase inhibitors” (Communications Chemistry, 2024)
